The target in the test is Photoreceptor-specific nuclear receptor (Homo sapiens) (UniProt Q9Y5X4). The test is described as follows: NR2E3 agonists releasing NCOR corepressor, dose response, cell-based, luminescence, CHO-S two-hybrid, late stage (AID 651849). To be noted: CHO-S Gal4-NCOR/VP16-NR2E3 two-hybrid, luciferase.
Sequence of Photoreceptor-specific nuclear receptor (Homo sapiens) (Q9Y5X4 whole entry, looked up, the tested form may be a part): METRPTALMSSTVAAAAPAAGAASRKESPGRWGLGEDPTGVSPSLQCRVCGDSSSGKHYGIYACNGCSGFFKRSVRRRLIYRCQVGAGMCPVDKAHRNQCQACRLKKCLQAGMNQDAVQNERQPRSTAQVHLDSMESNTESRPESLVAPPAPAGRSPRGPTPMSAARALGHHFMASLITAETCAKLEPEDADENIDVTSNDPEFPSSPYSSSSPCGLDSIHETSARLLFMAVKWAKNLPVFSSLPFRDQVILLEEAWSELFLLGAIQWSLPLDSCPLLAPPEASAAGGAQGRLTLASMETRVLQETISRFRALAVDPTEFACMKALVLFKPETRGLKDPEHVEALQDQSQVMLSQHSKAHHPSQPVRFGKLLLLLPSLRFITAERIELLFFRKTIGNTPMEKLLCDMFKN
As to `COc1ccc(S(=O)(=O)N2CCCCC2)cc1NC(=S)Nc1cccc(Cl)c1C`, the IC50 is 1.5 µM.
To `COc1ccc(S(=O)(=O)N2CCCCC2)cc1NC(=S)Nc1ccccc1` belongs 2.63 µM; to `COc1cc2nc(CN3CC=C(c4ccccc4)CC3)[nH]c(=O)c2cc1OC`, 0.393 µM; to `COc1ccc(NC2c3ccccc3C(=O)N2Cc2ccccc2Cl)cc1OC` (stereo unspecified), 4.84 µM.
The result for `O=C(CSc1nnnn1-c1ccc(O)cc1)Nc1ccc(N2CCOCC2)c(Cl)c1` reads 1.25 µM; that for `NC(=O)c1nn(-c2ccccc2)nc1NC(=O)CSc1nnnn1-c1ccc(Cl)cc1`, 1.57 µM.
With `O=c1cc(N2CCN(c3cccc(Cl)c3)CC2)[nH]c(=O)n1C1CCCCC1`, the IC50 is 0.0727 µM.
To `Cc1cnc(NC(=O)Cc2ccc(Br)cc2)s1` belongs 2.25 µM; to `O=C(CSc1nnnn1-c1ccc2c(c1)OCCO2)Nc1nc2c(s1)CCCC2`, 0.682 µM.
Consider `Cc1ccnc(NC(=O)CSc2cc(=O)n(C)c3ccccc23)c1`, for which the half-maximal inhibitory concentration (IC50) is 1.43 µM.
With `O=C(O)CC1(CC(=O)Nc2cc(C(F)(F)F)cc(C(F)(F)F)c2)CCCCC1`, the IC50 is 4.02 µM.
To `Cc1cccc(C(=O)N[C@H](C(=O)Nc2ncc(C)s2)C(C)C)c1` belongs 0.324 µM; to `Cc1cc(C)cc(NC(=O)CCc2nc3sc4c(c3c(=O)[nH]2)CCCC4)c1`, 0.249 µM; to `O=c1c(Cl)c(N2CCN(c3ccc(F)cc3)CC2)cnn1C12CC3CC(CC(C3)C1)C2`, 3.33 µM.
Turning to `Cc1onc(-c2ccccc2Cl)c1C(=O)Nc1nc2c(s1)CCCC2`, the IC50 is 0.597 µM.
Take `COc1ccc2c(CC(=O)Nc3ncc(C)s3)coc2c1`: the IC50 was 1.92 µM.
On to `Cc1cccc(OCCCC(=O)Nc2nc3ccccc3[nH]2)c1`, for which the IC50 was 5.3 µM.
To `COc1cccc(N2CCN(c3nc(-c4ccccc4C)cc(=O)[nH]3)CC2)c1` belongs 0.428 µM; to `COc1ccc(OC)c(NC(=O)CSc2nnnn2-c2ccc3c(c2)OCO3)c1`, 0.301 µM.
Consider `Cc1cnc(NC(=O)CCCc2nc3ccccc3s2)s1`, for which the IC50 was 0.945 µM.
To `Cc1ccc(NC(=O)CSc2nnnn2-c2ccc3c(c2)OCO3)cc1C` belongs 0.566 µM.
`Cc1ccc(-c2nc(NC(=O)CSc3nnnn3-c3ccccc3)ns2)cc1`: the IC50 is 0.405 µM.
The result for `Cc1cnc(NC(=O)C2CC(=O)N(c3ccc4c(c3)OCCO4)C2)s1` (stereo unspecified) reads 7.06 µM; that for `Cc1ccc(CN2CC(C(=O)Nc3ncc(C)s3)CC2=O)cc1` (stereo unspecified), 0.516 µM; that for `O=C(Nc1cccc(NC(=O)c2c(F)cccc2F)n1)c1c(F)cccc1F`, 7.99 µM.
For `COc1cccc(NC(=O)CSc2nc3ncc(Br)cc3[nH]2)c1`, the IC50 is 3.57 µM.

The values above are taken from PubChem BioAssay AID651849 (The Scripps Research Institute Molecular Screening Center, 2012).
